# Test results reported in PubChem BioAssay (NCI).
#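 GI50 marks 50% less growth. Definition used: TGI = concentration required for complete inhibition of growth.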
# How the values were obtained:
# Experiment in all cases: NCI-60 cell line screen, 384-well format
# A549 NSCLC = test system: A549 NSCLC
# HCT-116 colon = test system: HCT-116 colon
# HOP-92 NSCLC = test system: HOP-92 NSCLC
# HT29 colon = test system: HT29 colon
# K-562 leukemia = test system: K-562 leukemia
# MALME-3M melanoma = test system: MALME-3M melanoma
# OVCAR-5 ovarian = test system: OVCAR-5 ovarian
# OVCAR-8 ovarian = test system: OVCAR-8 ovarian
# PC-3 prostate = test system: PC-3 prostate
# SF-295 CNS = test system: SF-295 CNS
# SK-OV-3 ovarian = test system: SK-OV-3 ovarian
# SN12C renal = test system: SN12C renal
# UACC-62 melanoma = test system: UACC-62 melanoma
compound,measurement,setting,value
CCN(CC)CCNC(=O)c1c(C)[nH]c(/C=C2\C(=O)Nc3ccc(F)cc32)c1C,GI50,A549 NSCLC,2580 nM
same,TGI,A549 NSCLC,6970 nM
same,GI50,HCT-116 colon,1280 nM
same,TGI,HCT-116 colon,2620 nM
same,GI50,HOP-92 NSCLC,1620 nM
same,TGI,HOP-92 NSCLC,4860 nM
same,GI50,HT29 colon,1480 nM
same,TGI,HT29 colon,2850 nM
same,GI50,K-562 leukemia,1350 nM
same,TGI,K-562 leukemia,2660 nM
same,GI50,MALME-3M melanoma,1170 nM
same,TGI,MALME-3M melanoma,2410 nM
same,GI50,OVCAR-5 ovarian,2670 nM
same,TGI,OVCAR-5 ovarian,11200 nM
same,GI50,OVCAR-8 ovarian,2350 nM
same,TGI,OVCAR-8 ovarian,6180 nM
same,GI50,PC-3 prostate,2270 nM
same,TGI,PC-3 prostate,7540 nM
same,GI50,SF-295 CNS,5250 nM
same,TGI,SF-295 CNS,9620 nM
same,GI50,SK-OV-3 ovarian,1040 nM
same,TGI,SK-OV-3 ovarian,5700 nM
same,GI50,SN12C renal,931 nM
same,TGI,SN12C renal,10400 nM
same,GI50,UACC-62 melanoma,1800 nM
same,TGI,UACC-62 melanoma,4460 nM
